Activity calls are given as the source filed them. The calls are words filed in the database; no cut-off is given here.
Key:
[1] = system: Mycobacterium tuberculosis; experiment: Antitubercular activity against Mycobacterium tuberculosis H37Rv assessed as reduction in microbial growth after 7 days by alamar blue assay; type: functional; conditions: 168 h
Klebsiella pneumoniae [2] = experiment: Antibacterial activity against Klebsiella pneumoniae MTCC 618 assessed as diameter of zone of inhibition at 200 ug/ml after 24 hrs by agar well diffusion method; type: functional
[3] = system: Staphylococcus epidermidis; experiment: Antibacterial activity against Staphylococcus epidermidis assessed as reduction in microbial growth after 24 hrs by CLSI based microdilution method; type: functional
Escherichia coli [4] = experiment: Antibacterial activity against Escherichia coli MTCC 443 assessed as reduction in microbial growth after 24 hrs by CLSI based microdilution method; type: functional; conditions: MTCC 443, 24 h
[5] = Cytotoxicity against HEK cells assessed as reduction in cell viability after 24 hrs by MTT assay; type: cell-based, Homo sapiens
Bacillus subtilis [6] = experiment: Antibacterial activity against Bacillus subtilis MTCC 441 assessed as diameter of zone of inhibition at 200 ug/ml after 24 hrs by agar well diffusion method; type: functional; conditions: MTCC 441, 24 h, read-out: DIZ
Escherichia coli [7] = experiment: Antibacterial activity against Escherichia coli MTCC 443 assessed as diameter of zone of inhibition at 200 ug/ml after 24 hrs by agar well diffusion method; type: functional
Pseudomonas aeruginosa [8] = experiment: Antibacterial activity against Pseudomonas aeruginosa MTCC 741 assessed as reduction in microbial growth after 24 hrs by CLSI based microdilution method; type: functional; conditions: MTCC 741, 24 h
Klebsiella pneumoniae [9] = experiment: Antibacterial activity against Klebsiella pneumoniae MTCC 618 assessed as reduction in microbial growth after 24 hrs by CLSI based microdilution method; type: functional; conditions: MTCC 618, 24 h
CHO-K1 = experiment: Cytotoxicity against CHOK1 cells assessed as reduction in cell viability after 24 hrs by MTT assay; type: cell-based; conditions: Cricetulus griseus, CHO-K1, 24 h
Staphylococcus aureus [10] = experiment: Antibacterial activity against Staphylococcus aureus MTCC 96 assessed as reduction in microbial growth after 24 hrs by CLSI based microdilution method; type: functional; conditions: MTCC 96, 24 h
Pseudomonas aeruginosa [11] = experiment: Antibacterial activity against Pseudomonas aeruginosa MTCC 741 assessed as diameter of zone of inhibition at 200 ug/ml after 24 hrs by agar well diffusion method; type: functional
[12] = system: Staphylococcus epidermidis; experiment: Antibacterial activity against Staphylococcus epidermidis assessed as diameter of zone of inhibition at 200 ug/ml after 24 hrs by agar well diffusion method; type: functional
Bacillus subtilis [13] = experiment: Antibacterial activity against Bacillus subtilis MTCC 441 assessed as reduction in microbial growth after 24 hrs by CLSI based microdilution method; type: functional; conditions: MTCC 441, 24 h
Staphylococcus aureus [14] = experiment: Antibacterial activity against Staphylococcus aureus MTCC 96 assessed as diameter of zone of inhibition at 200 ug/ml after 24 hrs by agar well diffusion method; type: functional
[15] = system: Mycobacterium tuberculosis; experiment: Antitubercular activity against Mycobacterium tuberculosis H37Rv assessed as log reduction in bacterial population at 10 ug/ml under starvation condition after 7 days by MPN assay; type: functional

For `CC(=O)c1c(O)c(C)c(O)c2c1OC1=CC(=O)/C(=C(/C)NCc3cn(CC(=O)c4c5ccccc5cc5ccccc45)nn3)C(=O)C12C` (configuration not stated), which MIC [1] is on record?
Its MIC is 9.7 µM.

Which “diameter of the inhibition zone (DIZ)” value (Klebsiella pneumoniae [2]) does the source give for `CC(=O)c1c(O)c(C)c(O)c2c1OC1=CC(=O)/C(=C(/C)NCc3cn(CC(=O)c4c(F)c(F)c(F)c(F)c4F)nn3)C(=O)C12C` (configuration not stated) here?
The value was “inactive”.

And the MIC [3]?
The MIC was greater than 350 µM.

And the MIC (Escherichia coli [4])?
Its MIC is greater than 350 µM.

And the IC50 [5]?
Its IC50 is “Non-Toxic”.

And the zone of inhibition at 200 µg/mL (Bacillus subtilis [6])?
Its zone of inhibition at 200 µg/mL is 12 mm.

And the “diameter of the inhibition zone (DIZ)” value (Escherichia coli [7])?
The value was “inactive”.

And the MIC (Pseudomonas aeruginosa [8])?
The MIC was greater than 350 µM.

And the MIC (Klebsiella pneumoniae [9])?
Its MIC is greater than 350 µM.

What about the IC50 (CHO-K1) of the same molecule?
The IC50 was 67.6 µM.

What about the MIC (Staphylococcus aureus [10]) of the same molecule?
The MIC was greater than 350 µM.

What about the “diameter of the inhibition zone (DIZ)” value (Pseudomonas aeruginosa [11]) of the same molecule?
The value was “inactive”.

What about the “diameter of the inhibition zone (DIZ)” value [12] of the same molecule?
The value was “inactive”.

And the MIC (Bacillus subtilis [13])?
Its MIC is 158 µM.

What about the MIC [1] of the same molecule?
The MIC was 39.5 µM.

And the “diameter of the inhibition zone (DIZ)” value (Staphylococcus aureus [14])?
Its value is “inactive”.

Which zone of inhibition at 200 µg/mL (Klebsiella pneumoniae [2]; MTCC 618, 24 h, read-out: DIZ) does the source give for `CN[C@@H]1[C@H](O[C@H]2[C@H](O[C@H]3[C@H](O)[C@@H](O)[C@H](N=C(N)N)[C@@H](O)[C@@H]3N=C(N)N)O[C@@H](C)[C@]2(O)C=O)O[C@@H](CO)[C@H](O)[C@H]1O` [STREPTOMYCIN] here?
Its zone of inhibition at 200 µg/mL is 26 mm.

What about the MIC [3] of the same molecule?
The MIC was 4 µM.

What about the MIC (Escherichia coli [4]) of the same molecule?
The MIC was 8.1 µM.

What about the zone of inhibition at 200 µg/mL (Bacillus subtilis [6]) of the same molecule?
The zone of inhibition at 200 µg/mL was 24 mm.

What about the zone of inhibition at 200 µg/mL (Escherichia coli [7]; MTCC 443, 24 h, read-out: DIZ) of the same molecule?
The zone of inhibition at 200 µg/mL was 23 mm.

And the MIC (Pseudomonas aeruginosa [8])?
The MIC was 8.1 µM.

What about the MIC (Klebsiella pneumoniae [9]) of the same molecule?
Its MIC is 8.1 µM.

And the MIC (Staphylococcus aureus [10])?
The MIC was 4 µM.

What about the zone of inhibition at 200 µg/mL (Pseudomonas aeruginosa [11]; MTCC 741, 24 h, read-out: DIZ) of the same molecule?
The zone of inhibition at 200 µg/mL was 28 mm.

And the zone of inhibition at 200 µg/mL ([12]; read-out: DIZ)?
The zone of inhibition at 200 µg/mL was 25 mm.

What about the MIC (Bacillus subtilis [13]) of the same molecule?
Its MIC is 8.1 µM.

What about the zone of inhibition at 200 µg/mL (Staphylococcus aureus [14]; MTCC 96, 24 h, read-out: DIZ) of the same molecule?
Its zone of inhibition at 200 µg/mL is 23 mm.

With `CC(=O)c1c(O)c(C)c(O)c2c1OC1=CC(=O)/C(=C(/C)NCc3cn(CC(=O)N4CCN(c5ccccn5)CC4)nn3)C(=O)C12C` (configuration not stated) as the molecule, how does the MIC [1] read?
Its MIC is 39.8 µM.

With `CC(=O)c1c(O)c(C)c(O)c2c1OC1=CC(=O)/C(=C(/C)NCc3cn(CC(=O)c4ccc(F)cc4)nn3)C(=O)C12C` (configuration not stated) as the molecule, how does the MIC [3] read?
Its MIC is greater than 350 µM.

What about the MIC (Escherichia coli [4]) of the same molecule?
The MIC was greater than 350 µM.

And the MIC (Pseudomonas aeruginosa [8])?
The MIC was greater than 350 µM.

And the MIC (Klebsiella pneumoniae [9])?
The MIC was greater than 350 µM.

What about the MIC (Staphylococcus aureus [10]) of the same molecule?
Its MIC is greater than 350 µM.

What about the MIC (Bacillus subtilis [13]) of the same molecule?
Its MIC is 347 µM.

And the MIC [1]?
Its MIC is 11.2 µM.

With `COc1ccc(C(=O)Cn2cc(CN/C(C)=C3\C(=O)C=C4Oc5c(C(C)=O)c(O)c(C)c(O)c5C4(C)C3=O)nn2)cc1` (configuration not stated) as the molecule, how does the MIC [1] read?
The MIC was 43.7 µM.

With `CC[C@@H](CO)NCCN[C@@H](CC)CO` [ETHAMBUTOL] as the molecule, how does the MIC [1] read?
The MIC was 7.6 µM.

For `CC(=O)c1c(O)c(C)c(O)c2c1OC1=CC(=O)/C(=C(/C)NCc3cn(CC(=O)c4ccc(Br)s4)nn3)C(=O)C12C` (configuration not stated), which MIC [1] is on record?
The MIC was 39.8 µM.

For `COc1cccc(C(=O)Cn2cc(CN/C(C)=C3\C(=O)C=C4Oc5c(C(C)=O)c(O)c(C)c(O)c5C4(C)C3=O)nn2)c1` (configuration not stated), which MIC [1] is on record?
Its MIC is 43.7 µM.

With `CC(=O)c1c(O)c(C)c(O)c2c1OC1=CC(=O)/C(=C(/C)NCc3cn(CC(=O)c4ccc(C#N)cc4)nn3)C(=O)C12C` (configuration not stated) as the molecule, how does the MIC [1] read?
Its MIC is 44.1 µM.

Which MIC [1] does the source give for `CC(=O)c1c(O)c(C)c(O)c2c1OC1=CC(=O)/C(=C(/C)NCc3cn(CC(=O)c4ccc(OC(F)(F)F)cc4)nn3)C(=O)C12C` (configuration not stated) here?
Its MIC is 39.9 µM.

For `CC(=O)c1c(O)c(C)c(O)c2c1OC1=CC(=O)/C(=C(/C)NCc3cn(CC(=O)c4ccc5c(c4)Cc4ccccc4-5)nn3)C(=O)C12C` (configuration not stated), which MIC [1] is on record?
The MIC was 9.9 µM.

With `CC(=O)c1c(O)c(C)c(O)c2c1OC1=CC(=O)/C(=C(/C)NCc3cn(CC(=O)c4ccc(C(F)(F)F)cc4)nn3)C(=O)C12C` (configuration not stated) as the molecule, how does the MIC [1] read?
Its MIC is 41 µM.

Which IC50 (CHO-K1) does the source give for `CO[C@@]12[C@H](COC(N)=O)C3=C(C(=O)C(C)=C(N)C3=O)N1C[C@@H]1N[C@@H]12` [MITOMYCIN] here?
The IC50 was 39.8 µM.

For `CC(=O)c1c(O)c(C)c(O)c2c1OC1=CC(=O)/C(=C(/C)NCc3cn(CC(=O)N4CCN(C/C=C/c5ccccc5)CC4)nn3)C(=O)C12C` (configuration not stated), which MIC [1] is on record?
Its MIC is 37.5 µM.

For `CC(=O)c1c(O)c(C)c(O)c2c1OC1=CC(=O)/C(=C(/C)NCc3cn(CC(=O)c4cccc5ccccc45)nn3)C(=O)C12C` (configuration not stated), which MIC [1] is on record?
The MIC was 42.2 µM.

For `CC(=O)c1c(O)c(C)c(O)c2c1OC1=CC(=O)/C(=C(/C)NCc3cn(CC(=O)c4ccc([N+](=O)[O-])cc4)nn3)C(=O)C12C` (configuration not stated), which MIC [1] is on record?
The MIC was 42.6 µM.

For `CC(=O)C1=C(O)C=C2Oc3c(C(C)=O)c(O)c(C)c(O)c3C2(C)C1=O` (configuration not stated), which MIC [1] is on record?
Its MIC is 35.6 µM.

With `NNC(=O)c1ccncc1` [ISONIAZID] as the molecule, how does the FC [15] read?
The FC was 1.5.

And the MIC [1]?
Its MIC is 2.9 µM.

Which MIC [1] does the source give for `CC(=O)c1c(O)c(C)c(O)c2c1OC1=CC(=O)/C(=C(/C)NCc3cn(CC(=O)c4cccs4)nn3)C(=O)C12C` (configuration not stated) here?
Its MIC is 45.6 µM.

From ChEMBL document CHEMBL4342442, “Usnic Acid Enaminone-Coupled 1,2,3-Triazoles as Antibacterial and Antitubercular Agents” (J Nat Prod, 2020)
